# Patent US6737383B1, “Herbicidal oxadiazolidines” (priority 1999, dated 2004)
# Tests used:
# Conditions in all cases: Preemergence, 0 to 100 scale
# Alexandergrass = experiment: Test D Alexandergrass; format: in vivo, Brachiaria plantaginea
# In short: (§1)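 Scoring used a 0–100 visual injury scale, with 0 meaning no effect and 100 complete control, assessed 14–21 days after application alongside untreated pots. Preemergence treatments went onto sandy loam surfaces of separately potted seeds within a day of sowing.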
# bermuda-grass = experiment: Test D bermudagrass; format: in vivo, Cynodon dactylon
# In short: as §1
# common pursiane = experiment: Test D common purslane; format: in vivo, Portulaca oleracea
# In short: as §1
# common ragweed = experiment: Test D common ragweed; format: in vivo, Ambrosia elatior
# In short: as §1
# common groundsel = experiment: Test D common groundsel; format: in vivo, Senecio vulgaris
# In short: as §1
# goosegrass = experiment: Test D goosegrass; format: in vivo, Eleusine indica
# In short: as §1
# guineagrass = experiment: Test D guineagrass; format: in vivo, Panicum maximum
# In short: as §1
# Johnson grass = experiment: Test D Johnson grass; format: in vivo, Sorghum halepense
# In short: as §1
# large crabgrass = experiment: Test D large crabgrass; format: in vivo, Digitaria sanguinalis
# In short: as §1
# pitted morningglory = experiment: Test D pitted morningglory; format: in vivo, Ipomoea lacunosa
# In short: as §1
# purple nutsedge = experiment: Test D purple nutsedge; format: in vivo, Cyperus rotundus
# In short: as §1
# sandbur = experiment: Test D sandbur; format: in vivo, Cenchrus echinatus
# In short: as §1
# Spanishneedles = experiment: Test D Spanishneedles; format: in vivo, Bidens bipinnata
# In short: as §1
# surinam grass = experiment: Test D surinam grass; format: in vivo, Brachiaria decumbens
# In short: as §1
# tall mallow = experiment: Test D tall mallow; format: in vivo, Malva sylvestris
# In short: as §1
# [1] = Rate 16 g/ha, 0 no injury, 100 complete control
# [2] = Rate 32 g/ha, 0 no injury, 100 complete control
# [3] = Rate 64 g/ha, 0 no injury, 100 complete control
# [4] = Rate 125 g/ha, 0 no injury, 100 complete control
compound,measurement,setting,value
CC(C)N(C(=O)n1oc(=O)n(Cc2cccs2)c1=O)c1ccccc1 [Compound 103],"Plant response rating, Alexandergrass",Alexandergrass; [1],0
same,"Plant response rating, Alexandergrass",Alexandergrass; [2],0
same,"Plant response rating, Alexandergrass",Alexandergrass; [3],0
same,"Plant response rating, Alexandergrass",Alexandergrass; [4],40
same,"Plant response rating, Alexandergrass",Alexandergrass; Rate 250 g/ha,85
same,"Plant response rating, Alexandergrass",Alexandergrass; Rate 500 g/ha,95
same,"Plant response rating, Bermudagrass",bermuda-grass; [1],30
same,"Plant response rating, Bermudagrass",bermuda-grass; [2],30
same,"Plant response rating, Bermudagrass",bermuda-grass; [3],60
same,"Plant response rating, Bermudagrass",bermuda-grass; [4],80
same,"Plant response rating, Bermudagrass",bermuda-grass; Rate 250 g/ha,100
same,"Plant response rating, Bermudagrass",bermuda-grass; Rate 500 g/ha,100
same,"Plant response rating, C. purslane",common pursiane; [1],0
same,"Plant response rating, C. purslane",common pursiane; [2],0
same,"Plant response rating, C. purslane",common pursiane; [3],0
same,"Plant response rating, C. purslane",common pursiane; [4],0
same,"Plant response rating, C. purslane",common pursiane; Rate 250 g/ha,0
same,"Plant response rating, C. purslane",common pursiane; Rate 500 g/ha,0
same,"Plant response rating, C. ragweed",common ragweed; [1],0
same,"Plant response rating, C. ragweed",common ragweed; [2],0
same,"Plant response rating, C. ragweed",common ragweed; [3],0
same,"Plant response rating, C. ragweed",common ragweed; [4],0
same,"Plant response rating, C. ragweed",common ragweed; Rate 250 g/ha,0
same,"Plant response rating, C. ragweed",common ragweed; Rate 500 g/ha,0
same,"Plant response rating, Com. groundsel",common groundsel; [1],0
same,"Plant response rating, Com. groundsel",common groundsel; [2],0
same,"Plant response rating, Com. groundsel",common groundsel; [3],0
same,"Plant response rating, Com. groundsel",common groundsel; [4],0
same,"Plant response rating, Com. groundsel",common groundsel; Rate 250 g/ha,0
same,"Plant response rating, Com. groundsel",common groundsel; Rate 500 g/ha,0
same,"Plant response rating, Goosegrass",goosegrass; [1],0
same,"Plant response rating, Goosegrass",goosegrass; [2],30
same,"Plant response rating, Goosegrass",goosegrass; [3],65
same,"Plant response rating, Goosegrass",goosegrass; [4],85
same,"Plant response rating, Goosegrass",goosegrass; Rate 250 g/ha,98
same,"Plant response rating, Goosegrass",goosegrass; Rate 500 g/ha,100
same,"Plant response rating, Guineagrass",guineagrass; [1],0
same,"Plant response rating, Guineagrass",guineagrass; [2],0
same,"Plant response rating, Guineagrass",guineagrass; [3],0
same,"Plant response rating, Guineagrass",guineagrass; [4],85
same,"Plant response rating, Guineagrass",guineagrass; Rate 250 g/ha,90
same,"Plant response rating, Guineagrass",guineagrass; Rate 500 g/ha,100
same,"Plant response rating, Johnsongrass",Johnson grass; [1],0
same,"Plant response rating, Johnsongrass",Johnson grass; [2],0
same,"Plant response rating, Johnsongrass",Johnson grass; [3],0
same,"Plant response rating, Johnsongrass",Johnson grass; [4],0
same,"Plant response rating, Johnsongrass",Johnson grass; Rate 250 g/ha,0
same,"Plant response rating, Johnsongrass",Johnson grass; Rate 500 g/ha,40
same,"Plant response rating, Large crabgrass",large crabgrass; [1],0
same,"Plant response rating, Large crabgrass",large crabgrass; [2],0
same,"Plant response rating, Large crabgrass",large crabgrass; [3],85
same,"Plant response rating, Large crabgrass",large crabgrass; [4],95
same,"Plant response rating, Large crabgrass",large crabgrass; Rate 250 g/ha,98
same,"Plant response rating, Large crabgrass",large crabgrass; Rate 500 g/ha,100
same,"Plant response rating, P. morninglory",pitted morningglory; [1],0
same,"Plant response rating, P. morninglory",pitted morningglory; [2],0
same,"Plant response rating, P. morninglory",pitted morningglory; [3],0
same,"Plant response rating, P. morninglory",pitted morningglory; [4],0
same,"Plant response rating, P. morninglory",pitted morningglory; Rate 250 g/ha,0
same,"Plant response rating, P. morninglory",pitted morningglory; Rate 500 g/ha,0
same,"Plant response rating, Purple nutsedge",purple nutsedge; [1],0
same,"Plant response rating, Purple nutsedge",purple nutsedge; [2],0
same,Purple nutsedge plant response rating,purple nutsedge; [3],0
same,Purple nutsedge plant response rating,purple nutsedge; [4],0
same,"Plant response rating, Purple nutsedge",purple nutsedge; Rate 250 g/ha,0
same,"Plant response rating, Purple nutsedge",purple nutsedge; Rate 500 g/ha,10
same,"Plant response rating, Sandbur",sandbur; [1],0
same,"Plant response rating, Sandbur",sandbur; [2],0
same,Sandbur plant response rating,sandbur; [3],0
same,Sandbur plant response rating,sandbur; [4],0
same,"Plant response rating, Sandbur",sandbur; Rate 250 g/ha,75
same,"Plant response rating, Sandbur",sandbur; Rate 500 g/ha,100
same,"Plant response rating, Spanishneedles",Spanishneedles; [1],0
same,"Plant response rating, Spanishneedles",Spanishneedles; [2],0
same,Spanishneedles plant response rating,Spanishneedles; [3],0
same,Spanishneedles plant response rating,Spanishneedles; [4],0
same,"Plant response rating, Spanishneedles",Spanishneedles; Rate 500 g/ha,20
same,"Plant response rating, Surinam grass",surinam grass; [1],0
same,"Plant response rating, Surinam grass",surinam grass; [2],0
same,Surinam grass plant response rating,surinam grass; [3],0
same,Surinam grass plant response rating,surinam grass; [4],0
same,"Plant response rating, Surinam grass",surinam grass; Rate 250 g/ha,0
same,"Plant response rating, Surinam grass",surinam grass; Rate 500 g/ha,40
same,"Plant response rating, Tall Mallow",tall mallow; [1],0
same,"Plant response rating, Tall Mallow",tall mallow; [2],0
same,Tall Mallow plant response rating,tall mallow; [3],0
same,Tall Mallow plant response rating,tall mallow; [4],0
same,"Plant response rating, Tall Mallow",tall mallow; Rate 250 g/ha,0
same,"Plant response rating, Tall Mallow",tall mallow; Rate 500 g/ha,0
